Results as given in ChEMBL document CHEMBL2407043, “Hydantoin based inhibitors of MMP13--discovery of AZD6605” (Bioorg Med Chem Lett, 2013).
≈ marks a conversion by molar mass, not a printed value.

Legend:
Cavia porcellus = experiment: Inhibition of cartilage loss in Dunkin Hartley guinea pig spontaneous osteoarthritis model at 0.06 mg/kg/day, sc after 12 weeks (reference value: 23%); format: functional; conditions: 2016 h, route subcutaneous
[1] = target: Matrix metalloproteinase-14 (Homo sapiens, UniProt P50281)
[2] = Thermodynamic solubility of the compound in phosphate buffer at pH 7.4 at 25 degC after 24 hrs; conditions: read-out: Therm_solubility
[3] = Volume of distribution at steady state in rat at 2 mg/kg, iv and 5 mg/kg, po; format: ADME, organism-based; conditions: in vivo, read-out: Vdss
[4] = Clearance in rat at 2 mg/kg, iv; format: ADME, organism-based; design: dose 2 mg/kg, route intravenous; conditions: in vivo
[5] = Half life in rat; format: ADME, organism-based; conditions: in vivo
[6] = Oral bioavailability in rat at 3 to 10 mg/kg; format: ADME, organism-based; conditions: in vivo
in vitro [7] = conditions: human, liver microsomes
[8] = target: Macrophage metalloelastase (Homo sapiens, UniProt P39900); experiment: Inhibition of MMP-12 (unknown origin) by fluorescence assay
[9] = Oral bioavailability in dog at 1 mg/kg; format: ADME, organism-based, Canis lupus familiaris; conditions: in vivo
[10] = Oral bioavailability in rat at 5 mg/kg; format: ADME, organism-based; conditions: in vivo
[11] = Half life in dog at 0.5 mg/kg, iv and 1 mg/kg, po; format: ADME, organism-based, Canis lupus familiaris; conditions: in vivo
[12] = Volume of distribution at steady state in dog at 0.5 mg/kg, iv and 1 mg/kg, po; format: ADME, organism-based, Canis lupus familiaris; conditions: in vivo, read-out: Vdss
[13] = Clearance in dog at 0.5 mg/kg, iv and 1 mg/kg, po; format: ADME, organism-based, Canis lupus familiaris; conditions: in vivo
[14] = Half life in rat at 2 mg/kg, iv and 5 mg/kg, po; format: ADME, organism-based; conditions: in vivo
[15] = Clearance in rat at 2 mg/kg, iv and 5 mg/kg, po; format: ADME, organism-based; conditions: in vivo
Cytochrome P450 3A4 = Cytochrome P450 3A4 (Homo sapiens, UniProt P08684); experiment: Inhibition of human CYP3A4; format: ADME
Cytochrome P450 2D6 = Cytochrome P450 2D6 (Homo sapiens, UniProt P10635); experiment: Inhibition of human CYP2D6; format: ADME
Cytochrome P450 2C9 = Cytochrome P450 2C9 (Homo sapiens, UniProt P11712); experiment: Inhibition of human CYP2C9; format: ADME
Cytochrome P450 2C19 = Cytochrome P450 2C19 (Homo sapiens, UniProt P33261); experiment: Inhibition of human CYP2C19; format: ADME
Cytochrome P450 1A2 = target: T1, Cytochrome P450 1A2 (Homo sapiens, UniProt P05177); experiment: Inhibition of human CYP1A2; format: ADME
T1 sequence (P05177 whole entry): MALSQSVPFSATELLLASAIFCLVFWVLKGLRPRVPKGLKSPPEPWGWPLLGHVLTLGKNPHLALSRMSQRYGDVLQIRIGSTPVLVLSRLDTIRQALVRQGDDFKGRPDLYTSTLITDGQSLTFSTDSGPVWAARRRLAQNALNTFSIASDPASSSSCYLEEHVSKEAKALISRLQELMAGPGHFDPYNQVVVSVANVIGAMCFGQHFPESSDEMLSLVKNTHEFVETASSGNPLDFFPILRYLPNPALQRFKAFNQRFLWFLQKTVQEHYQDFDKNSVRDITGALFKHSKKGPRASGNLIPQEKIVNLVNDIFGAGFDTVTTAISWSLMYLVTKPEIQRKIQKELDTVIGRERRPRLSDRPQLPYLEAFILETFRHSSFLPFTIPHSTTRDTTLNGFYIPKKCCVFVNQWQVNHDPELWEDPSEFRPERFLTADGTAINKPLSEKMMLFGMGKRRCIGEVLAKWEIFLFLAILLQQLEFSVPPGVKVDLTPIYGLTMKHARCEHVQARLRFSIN

[16] = Apparent permeability across basolateral to apical side in human Caco2 cells at 10 uM; format: ADME, cell-based; conditions: Caco-2
[17] = Fraction unbound in dog plasma; format: ADME, cell-free, Canis lupus familiaris
[18] = Fraction unbound in human plasma; format: ADME, cell-free
[19] = Fraction unbound in rat plasma; format: ADME, cell-free
[20] = Solubility of compound in fasted state simulated intestinal fluid; format: physicochemical
[21] = Intrinsic clearance in human hepatocytes measured per 10^6 cells; format: ADME, cell-based, Hepatocyte; conditions: read-out: CLH
in vitro [22] = conditions: human, Caco-2
physchem = conditions: buffer, pH 7.4

Chain of Macrophage metalloelastase (P39900 whole entry): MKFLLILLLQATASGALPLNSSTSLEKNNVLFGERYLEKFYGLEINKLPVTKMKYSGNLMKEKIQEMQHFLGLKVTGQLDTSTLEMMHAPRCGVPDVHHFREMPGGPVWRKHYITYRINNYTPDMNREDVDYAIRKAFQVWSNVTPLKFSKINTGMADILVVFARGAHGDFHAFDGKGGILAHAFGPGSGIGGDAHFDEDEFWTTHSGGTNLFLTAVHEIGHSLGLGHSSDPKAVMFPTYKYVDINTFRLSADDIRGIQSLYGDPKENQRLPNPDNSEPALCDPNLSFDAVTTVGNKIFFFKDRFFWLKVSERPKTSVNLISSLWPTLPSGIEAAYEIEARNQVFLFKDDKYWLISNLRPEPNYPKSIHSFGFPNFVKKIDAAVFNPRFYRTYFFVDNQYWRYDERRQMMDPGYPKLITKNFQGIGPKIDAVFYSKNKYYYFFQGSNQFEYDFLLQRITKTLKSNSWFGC
Chain of Cytochrome P450 2C9 (P11712 whole entry): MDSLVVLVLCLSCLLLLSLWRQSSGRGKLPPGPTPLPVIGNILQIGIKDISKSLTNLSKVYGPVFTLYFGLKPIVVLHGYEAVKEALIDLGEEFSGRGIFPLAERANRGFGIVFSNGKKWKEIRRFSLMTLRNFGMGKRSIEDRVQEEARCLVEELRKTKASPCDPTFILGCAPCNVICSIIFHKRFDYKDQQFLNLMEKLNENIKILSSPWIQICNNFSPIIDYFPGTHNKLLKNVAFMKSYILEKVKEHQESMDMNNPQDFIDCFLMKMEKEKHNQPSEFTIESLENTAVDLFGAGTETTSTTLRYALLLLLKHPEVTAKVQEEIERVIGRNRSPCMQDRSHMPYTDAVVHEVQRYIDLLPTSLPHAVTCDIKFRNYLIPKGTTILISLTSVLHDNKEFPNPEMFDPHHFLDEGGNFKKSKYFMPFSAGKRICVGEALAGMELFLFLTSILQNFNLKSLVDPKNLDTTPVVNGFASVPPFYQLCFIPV
Chain of Cytochrome P450 2D6 (P10635 whole entry): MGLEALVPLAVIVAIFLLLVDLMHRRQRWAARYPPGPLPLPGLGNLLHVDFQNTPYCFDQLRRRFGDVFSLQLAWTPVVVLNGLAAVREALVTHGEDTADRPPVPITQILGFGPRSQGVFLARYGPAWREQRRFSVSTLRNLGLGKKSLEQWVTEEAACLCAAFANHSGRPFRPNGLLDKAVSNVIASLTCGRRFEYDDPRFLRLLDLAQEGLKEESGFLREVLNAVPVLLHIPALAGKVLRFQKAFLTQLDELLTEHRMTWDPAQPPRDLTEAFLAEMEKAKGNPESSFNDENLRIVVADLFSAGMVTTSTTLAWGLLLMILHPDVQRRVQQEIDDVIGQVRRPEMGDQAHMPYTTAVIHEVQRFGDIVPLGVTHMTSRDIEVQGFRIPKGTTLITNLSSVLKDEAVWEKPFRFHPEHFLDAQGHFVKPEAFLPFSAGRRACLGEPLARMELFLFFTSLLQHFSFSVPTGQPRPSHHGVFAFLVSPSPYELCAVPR
Chain of Cytochrome P450 3A4 (P08684 whole entry): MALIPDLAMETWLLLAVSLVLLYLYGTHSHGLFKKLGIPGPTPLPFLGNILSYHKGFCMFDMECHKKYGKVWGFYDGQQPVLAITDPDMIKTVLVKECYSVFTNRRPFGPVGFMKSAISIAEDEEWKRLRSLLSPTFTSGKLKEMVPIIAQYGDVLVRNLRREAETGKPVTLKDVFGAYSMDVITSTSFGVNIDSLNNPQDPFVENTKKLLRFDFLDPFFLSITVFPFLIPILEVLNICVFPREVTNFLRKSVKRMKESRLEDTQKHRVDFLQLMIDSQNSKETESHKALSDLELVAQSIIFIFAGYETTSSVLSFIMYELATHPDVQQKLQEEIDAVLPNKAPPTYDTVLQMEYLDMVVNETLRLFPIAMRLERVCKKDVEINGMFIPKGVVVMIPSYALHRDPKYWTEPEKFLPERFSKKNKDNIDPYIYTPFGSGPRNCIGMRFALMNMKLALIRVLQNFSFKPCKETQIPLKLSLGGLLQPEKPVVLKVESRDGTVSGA
Chain of Cytochrome P450 2C19 (P33261 whole entry): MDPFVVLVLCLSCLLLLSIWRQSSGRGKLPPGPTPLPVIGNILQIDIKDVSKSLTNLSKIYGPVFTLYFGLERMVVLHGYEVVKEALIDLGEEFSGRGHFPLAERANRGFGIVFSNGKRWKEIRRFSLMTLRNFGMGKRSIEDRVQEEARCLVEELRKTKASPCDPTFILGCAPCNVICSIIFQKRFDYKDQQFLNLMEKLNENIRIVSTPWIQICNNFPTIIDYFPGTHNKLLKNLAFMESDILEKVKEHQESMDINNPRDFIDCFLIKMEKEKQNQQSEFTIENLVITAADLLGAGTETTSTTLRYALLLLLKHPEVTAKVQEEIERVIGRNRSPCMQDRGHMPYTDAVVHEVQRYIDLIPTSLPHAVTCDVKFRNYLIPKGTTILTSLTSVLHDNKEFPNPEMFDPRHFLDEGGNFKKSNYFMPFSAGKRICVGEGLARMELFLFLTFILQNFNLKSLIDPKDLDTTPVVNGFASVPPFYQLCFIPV

## O=CN(O)[C@@H](CCc1ncccn1)CS(=O)(=O)N1CCN(c2ccc(OCC(F)(F)F)cn2)CC1
Cavia porcellus
  inhibition in vivo at 0.06 mg/kg/day: 76%

## C[C@]1(CS(=O)(=O)N2CCC(Oc3ccc(OCC(F)(F)C(F)(F)F)cc3)CC2)NC(=O)NC1=O
[1]
  IC50: 4.74 µM
[2]
  solubility thermodynamic at 24 h: 4.4 µM (≈ 2.27 µg/mL)

## C[C@]1(CS(=O)(=O)N2CCC(Oc3ccc(OCCC(F)(F)F)cc3)CC2)NC(=O)NC1=O
[1]
  IC50: 3.12 µM
[2]
  solubility thermodynamic at 24 h: 110 µM (≈ 52.7 µg/mL)

## COc1ccc(COc2ccc(OC3CCN(S(=O)(=O)C[C@@]4(C)NC(=O)NC4=O)CC3)cc2)cc1
[1]
  IC50: 1.08 µM
[2]
  solubility thermodynamic at 24 h: 1.2 µM (≈ 0.604 µg/mL)

## C[C@]1(CS(=O)(=O)N2CCC(Oc3ccc(OCc4ccc(S(C)(=O)=O)cc4)cc3)CC2)NC(=O)NC1=O
[1]
  IC50: 0.062 µM
[2]
  solubility thermodynamic at 24 h: 3.1 µM (≈ 1.71 µg/mL)

## Cc1cc(COc2cnc(N3CCN(S(=O)(=O)C[C@@]4(C)NC(=O)NC4=O)CC3)nc2)on1
[3]
  Vd: 0.5 L/kg
[4]
  clearance: 0.804 L/h/kg
[5]
  half-life: 0.67 h
[6]
  bioavailability: 37%
In vitro [7]
  microsomal CLint: < 2 µL/min/mg
[2]
  solubility thermodynamic at 24 h: 13 µM (≈ 6.05 µg/mL)

## C[C@]1(CS(=O)(=O)N2CCC(Oc3ccc(OCc4ccccc4)cc3)CC2)NC(=O)NC1=O
[2]
  solubility thermodynamic at 24 h: < 0.8 µM

## C[C@]1(CS(=O)(=O)N2CCN(c3ncc(OCc4cncs4)cn3)CC2)NC(=O)NC1=O
[2]
  solubility thermodynamic at 24 h: 49 µM (≈ 22.9 µg/mL)

## C[C@]1(CS(=O)(=O)N2CCC(Oc3ccc(OCc4ccc(C#N)cc4)cc3)CC2)NC(=O)NC1=O
[2]
  solubility thermodynamic at 24 h: 1.8 µM (≈ 0.897 µg/mL)

## C[C@]1(CS(=O)(=O)N2CCN(c3ncc(OCc4ccc(S(C)(=O)=O)cc4)cn3)CC2)NC(=O)NC1=O
[2]
  solubility thermodynamic at 24 h: 1 µM (≈ 0.539 µg/mL)

## C[C@]1(CS(=O)(=O)N2CCC(Oc3ccc(OCc4ccc(F)cc4)cc3)CC2)NC(=O)NC1=O
[1]
  IC50: 7.73 µM

## C[C@]1(CS(=O)(=O)N2CCC(Oc3ccc(OC(F)(F)F)cc3)CC2)NC(=O)NC1=O
[1]
  IC50: 9.5 µM
[8]
  IC50: 0.0033 µM
[2]
  solubility thermodynamic at 24 h: 18 µM (≈ 8.13 µg/mL)

## CCCOc1ccc(OC2CCN(S(=O)(=O)C[C@@]3(C)NC(=O)NC3=O)CC2)cc1
[1]
  IC50: > 10 µM

## C[C@]1(CS(=O)(=O)N2CCN(c3ncc(OCc4cnc(C#N)s4)cn3)CC2)NC(=O)NC1=O
[3]
  Vd: 0.5 L/kg
[4]
  clearance: 5.84 L/h/kg
[5]
  half-life: 0.23 h
[6]
  bioavailability: 6%
In vitro [7]
  microsomal CLint: 16 µL/min/mg
[2]
  solubility thermodynamic at 24 h: 14 µM (≈ 6.9 µg/mL)

## C[C@]1(CS(=O)(=O)N2CCC(Oc3ccc(OCc4ccccn4)cc3)CC2)NC(=O)NC1=O
[9]
  bioavailability: 51%
[10]
  bioavailability: 35%
[11]
  half-life: 2.3 h
[12]
  Vd: 0.6 L/kg
[13]
  clearance: 0.18 L/h/kg
[3]
  Vd: 0.8 L/kg
[14]
  half-life: 2.5 h
[15]
  clearance: 1.02 L/h/kg
Cytochrome P450 3A4
  IC50: > 10 µM
Cytochrome P450 2D6
  IC50: > 10 µM
Cytochrome P450 2C9
  IC50: > 10 µM
Cytochrome P450 2C19
  IC50: > 10 µM
Cytochrome P450 1A2
  IC50: > 10 µM
[1]
  IC50: 6.9 µM
[2]
  solubility thermodynamic at 24 h: 20 µM (≈ 9.49 µg/mL)

## C[C@]1(CS(=O)(=O)N2CCC(Oc3ccc(F)cc3)CC2)NC(=O)NC1=O
[8]
  IC50: 0.0237 µM
[2]
  solubility thermodynamic at 24 h: 52 µM (≈ 20 µg/mL)

## CCOc1ccc(OC2CCN(S(=O)(=O)C[C@@]3(C)NC(=O)NC3=O)CC2)cc1
[1]
  IC50: 2.82 µM
[8]
  IC50: 0.002 µM
[2]
  solubility thermodynamic at 24 h: 15 µM (≈ 6.17 µg/mL)

## C[C@]1(CS(=O)(=O)N2CCN(c3ncc(OCc4ccc(C(F)(F)F)o4)cn3)CC2)NC(=O)NC1=O
[9]
  bioavailability: 51%
[10]
  bioavailability: 100%
[11]
  half-life: 10.6 h
[12]
  Vd: 1.2 L/kg
[13]
  clearance: 0.078 L/h/kg
[3]
  Vd: 1.3 L/kg
[14]
  half-life: 2.6 h
[15]
  clearance: 0.378 L/h/kg
[16]
  Papp B→A at 10 µM: 520 nm/s
[17]
  fraction unbound: 0.08
[18]
  fraction unbound: 0.06
[19]
  fraction unbound: 0.08
[20]
  solubility: 26.5 µM (≈ 13.7 µg/mL)
[4]
  clearance: 0.378 L/h/kg
[5]
  half-life: 2.6 h
[6]
  bioavailability: 100%
[21]
  hepatocyte CLint: < 2 µL/min/1e6 cells
In vitro [22]
  Papp A→B at 10 µM: 90 nm/s
physchem
  logD: 2.3
In vitro [7]
  microsomal CLint: 7 µL/min/mg
[2]
  solubility thermodynamic at 24 h: 11 µM (≈ 5.7 µg/mL)
